Test results published in article PMC3375286, “Crystal Structures Reveal the Multi-Ligand Binding Mechanism of Staphylococcus aureus ClfB” (PLoS Pathogens, 2012).
Where no end group is shown, it is not given here.

T1: Dermokine (Homo sapiens)
T1 chain: SQSGSSGSGSNGDNN

T2: ClfB(197–542) wildtype (Staphylococcus aureus, UniProt O86476)
T2 construct: The fragment of the ClfB gene (corresponding 197–542 aa) was amplified by PCR; His-tag; made in house; host or cells: E. coli BL21
T2 sequence (O86476 197-542): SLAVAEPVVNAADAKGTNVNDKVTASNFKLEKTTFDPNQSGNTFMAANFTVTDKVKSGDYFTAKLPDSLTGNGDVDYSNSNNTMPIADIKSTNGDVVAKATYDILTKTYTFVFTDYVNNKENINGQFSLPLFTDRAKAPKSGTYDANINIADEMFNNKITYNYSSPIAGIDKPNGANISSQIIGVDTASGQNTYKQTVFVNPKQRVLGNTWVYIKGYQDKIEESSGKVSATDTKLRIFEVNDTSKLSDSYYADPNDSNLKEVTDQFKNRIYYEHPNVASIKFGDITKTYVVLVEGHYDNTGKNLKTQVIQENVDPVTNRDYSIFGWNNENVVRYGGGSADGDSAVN

T3: ClfB (Staphylococcus aureus, UniProt O86476)
T3 construct: The fragment of the ClfB gene (corresponding 197–542 aa) was amplified by PCR; His-tag; made in house; host or cells: E. coli BL21
T3 sequence (O86476 197-542): T2 sequence (O86476 197-542)

B1: Clumping factor B 197-542 (protein)
chain: SLAVAEPVVNAADAKGTNVNDKVTASDFKLEKTAFDPNQSGNTFMAANFKVTGQVKSGDYFTAKLPDSVTGNGDVDYSNSNNTMPIADIKSTNGDVVAKATYDILTKTYTFVFTDYVNDKENINGQFSLPLFTDRAKAPKSGTYDANINIADEMFDNKITYNYSSPIAGIDKPNGANISSQIIGVDTASGQNTYKQTVFVNPKQRVLGNTWVYIKGYQDKIEESSGKVSATDTKLRIFEVNDTSKLSDSYYADPNDSNLKEVTGEFKDKISYKYDNVASINFGDINKTYVVLVEGHYDNTGKNLKTQVIQENIDPATGKDYSIFGWNNENVVRYGGGSADGDSAVN

Biological target: T1, Dermokine
Test: SPR
Conditions: not given

Row | Molecule | Kd [µM]
1 | B1 | 2.37

Biological target: T2, ClfB(197–542) wildtype
Test: SPR (ProteOn XPR36) binding of ClfB(197–542) wild type to immobilized peptide 15 from Dermokine
Conditions: SPR ProteOn XPR36, peptide captured on NLC Sensor Chip (460 RU), 25°C, 10 mM HEPES pH 7.2, 150 mM NaCl; ClfB(197–542) injected at 87.5-700 µM; repeated three times; read-out: dissociation constant (KD)
Description: Firstly, Derm was tested for its interaction with ClfB. To this end, we synthesized a 15-amino-acid-peptide (250–264; […], designated as Derm15 hereafter) derived from Derm and then characterized its binding to ClfB using the SPR (Surface Plasmon Resonance) assay. In the assay, ClfB bound to the peptide with a dissociation constant of 2.37 µM (Figure 7A). […] To understand the molecular mechanism underlying this interaction, we solved the crystal structure of ClfB(208–542) bound to the peptide at 2.5 Å resolution. As expected, Derm15 interacts with ClfB in a nearly identical manner with Fg α(316–328) and CK10(499–512) (Figure 7 B). The ClfB^Arg529 forms a hydrogen bond with […] and the C-terminus of N3 forms an extra strand, which is similar as that in the ClfB-Fg α(316–328) and ClfB-CK10(499–512) complexes (Figure 7 C). Mutagenesis studies were conducted to further verify the binding of Derm15 to ClfB. We replaced the residues ClfB^S236, W522 that participate in interactions with the peptide with alanine respectively. The mutant proteins were purified to homogeneity and tested for their interaction with the Derm peptide using SPR.
Figure 7 Dermokine is a potential ligand of ClfB. […] Red, 700 µM; blue, 350 µM; green, 87.5 µM. […]
Binding of ClfB(197–542) to peptide 15 was assessed by SPR using the ProteOn XPR36 equipment (Bio-Rad Laboratories, Inc.). […]

Row | Molecule | Kd [µM]
2 | GQSGSSGSGSNGDNN [Derm15] | 2.37

Biological target: T3, ClfB
Test: SPR (BIAcore T200) alanine scan of 9-residue GSR peptides and the 6-residue peptide on immobilized ClfB
Format: binding
Conditions: SPR BIAcore T200, 10°C; ClfB amine-coupled (~5300 RU) on CM5 chip; peptides 31.25-2000 µM in 10 mM HEPES pH 7.4, 150 mM NaCl, 0.005% Tween 20; 30 µl/min; 1:1 Langmuir fit
Description: A. Panel of dermokine peptides. […] Navy, 2000 µM; Magenta, 1000 µM; Dark cyan or dark yellow, 500 µM; Blue, 250 µM; Red, 125 µM; Green, 62.5 µM; Black, 31.25 µM.
The binding affinities between ClfB and the ten 9-amino–acid peptides and the 6-amino-acid peptide were determined by surface plasmon resonance (SPR) using BIAcore T200 instrument (GE Healthcare) at 10°C. The ClfB protein was immobilized to about 5300 Response Unit (RU) on a research-grade CM5 sensor chip in 10 mM sodium acetate, pH 5.0 by standard amine coupling method. The flow cell 1 was left blank as a reference. […] The ligands were allowed to associate for 60 s and dissociate for 120 s. Data were analyzed with the BIAcore T200 evaluation software by fitting to a 1∶1 Langmuir binding fitting model.

Row | Molecule | Kd [µM]
3 | ASSGSGSNG [Peptide2] | 1600
4 | GASGSGSNG [Peptide3] | 1240
5 | GSAGSGSNG [Peptide4] | 502
6 | GSSASGSNG [Peptide5] | 1140
7 | GSSGAGSNG [Peptide6] | 195
8 | GSSGSASNG [Peptide7] | 1610
9 | GSSGSG [Peptide11] | 833
10 | GSSGSGANG [Peptide8] | 326
11 | GSSGSGSAG [Peptide9] | 403
12 | GSSGSGSNA [Peptide10] | 1170
